Columns and labels:
[1] = molecular target: T1, HIV-1 protease (Human immunodeficiency virus type 1 group M subtype B, UniProt P04585); assay: Protease inhibition assay (fluorometric method); format: biochemical
T1 construct: fluorometric HIV-1 protease assay; purchased Bachem
Procedure: Protease inhibition is evaluated using a fluorometric method. Enzyme (Bachem) is diluted to 116 μgm/ml in 50 mM NaOAC, 5 mM DTT, 2 mM EDTA, 10% glycerol (pH 5.0) and stored as 10 μl samples at -20° C., HIV protease substrates I (Molecular Probes) is diluted to a working concentration of 0.32 nmoles/μl. Enzyme (20 μl) and drug (20 μl) are added to each well of a microtiter plate as appropriate. Positive and negative control are evaluated in parallel. Fluorescence is quantitated on Labsystems Fluroskan II using 355 nm/460nm at 37° C. at time zero and at 30 minute intervals for 2 hours. In instances where autofluorescence precludes use of the fluorometric HIV-1 protease assay or confirmation of a result is required, an HPLC based protease assay can be employed.

[2] = tested on: HIV-1 cell line, CEMRF; assay: Long term in vitro study, CEMRF cells, reverse transcriptase analysis; format: cell-based; design: Reverse transcriptase data: unit not given here
Procedure: A microtiter-based reveres transcriptase (RT) reaction is utilized (Buckheit et al (1991) AIDS Research and Human Retroviruses 7:295-302). Tritiated thymidine triphosphate (NEN)(TTP) is resuspended in distilled water at 5 Ci/ml. Poly rA and oligo dT are prepared as a stock solution which is kept at -20° C. The RT reaction buffer is prepared fresh on a daily basis and consists of 125 μl 1M EGTA, 125 μl water, 125 μl Triton X-100, 50 μl Tris (pH 7.4), 50 μl MDDT, and 40 μl 1M MgCl2. These three solutions are mixed together in a ratio of 1 part TTP, 2.5 parts poly rA:oligo dT, 2.5 parts reaction buffer and 4 parts distilled water. Ten microliters of this reaction mixture is placed in a round bottom microtiter place and 15 μl of virus containing supernatant is added and mixed. The plate is incubated at 37° C. and incubated for 60 minutes. Following reaction, the reaction volume is spotted onto filter mats, washed 6 times for 5 minutes each in a 5% sodium phosphate buffer, 2 times for 1 minute each in distilled water, 2 times for 1 minute each in 70% ethanol, and then dried. The dried filter mat is placed in a plastic sample bag, Betaplate scintillation fluid is added and the bag is heat sealed. Incorporated radioactivity is quantified utilizing a Wallac Microbeta scintillation counter.
Acute infection of most established human cell lines with HIV- I results in the eventual establishment of a constitutive virus-producing chronically infected cell line. The cells can be passaged for long periods of time in culture without loss of virus production. These cells may be utilized to evaluate the effects of anti-HIV compounds on syncytium formation or to evaluate the effects of anti-HIV compounds on levels of virus production from these cells. […] Each of the cells contains an integrated HIV genome or provirus. Chronically infected CEM, H9 and U937 cell lines have been prepared and cultured by Southern Research Institute, Frederick Md. and are available from them.
CEM-SS cells chronically infected with HIV isolate, for example SKI (CEM-SKI) are cultured in RPM1640 tissue culture medium supplemented with 10% fetal bovine serum and antibiotics. Selection is performed by culturing the cells in the presence of the compound to be tested in T25 flasks. CEM-SKI or other infected cells with no added drug are used as the control cells. Cells are allowed to grow to a density of approximately 1×10^6 cells/ml and are then passaged at a 1:10 dilution. After a period of time, usually one week intervals of drug treatment, cells are evaluated to determine if the inhibitory activity of the compound has been affected by treatment of the cells with either compounds. The drug concentration in the flask is then increased two-fold and the cells maintained as above.
The cell populations contain integrated copies of the HIV genome and constitutively produce HIV at relatively high levels or are latently infected and only produce virus after stimulation with phorbol esters, tumor necrosis factor or IL6(U1 and ACH2). Reductions in virus products were observed when quantifying supernatant reverse transcriptase activity,
Toxicity Values are measured by XTT and activity of the compound in the tests is measured by a Reverse Transcriptase analysis.
A long term in vitro study of 3-hexahydro-3-ethyl-1-methyl-2-oxo-1H-azepin-3-yl)phenyl ester of 4-chlorophenyl carbamic acid against an HIV-1 cell line, CEMRF, was conducted at three different levels. The results with CEMRF cells were reported at weekly intervals. CEMRF is a chronic HIV cell line.

SMILES: CCC1(c2cccc(OC(=O)Nc3ccc(Cl)cc3)c2)CCCCN(C)C1=O (stereo not shown) [(4-chlorophenyl)-carbamic acid, 3-(hexahydro-3-ethyl-1-methyl-2-oxo-1H-azepin-3-yl) 2 phenyl ester]
- EC50 [1]: > 249 µM
- Protease inhibition, mean ([1]; 0.1 nM): 27.9 fluorometric units
- Protease inhibition, sample 1 ([1]; 0.1 nM): 24.7 fluorometric units
- Protease inhibition, sample 2 ([1]; 0.1 nM): 31.2 fluorometric units
- remaining activity at 0.0001 µM ([1]; 0.1 nM, read-out: % ND control): 98.2%
- Protease inhibition, mean ([1]; 1 nM): 27.4 fluorometric units
- Protease inhibition, sample 1 ([1]; 1 nM): 27.4 fluorometric units
- Protease inhibition, sample 2 ([1]; 1 nM): 27.5 fluorometric units
- remaining activity at 0.001 µM ([1]; 1 nM, read-out: % ND control): 96.4%
- Protease inhibition, mean ([1]; 10 nM): 26.8 fluorometric units
- Protease inhibition, sample 1 ([1]; 10 nM): 28.5 fluorometric units
- Protease inhibition, sample 2 ([1]; 10 nM): 25.1 fluorometric units
- remaining activity at 0.01 µM ([1]; 10 nM, read-out: % ND control): 94.2%
- Protease inhibition, mean ([1]; 100 nM): 30.0 fluorometric units
- Protease inhibition, sample 1 ([1]; 100 nM): 29.3 fluorometric units
- Protease inhibition, sample 2 ([1]; 100 nM): 30.7 fluorometric units
- remaining activity at 0.1 µM ([1]; 100 nM, read-out: % ND control): 105%
- activity as a protease inhibitor ([1]; screened using a fluorometric method): did not show activity
- Reverse transcriptase data ([2]; 7 μg/ml, Day 4): 1942
- Reverse transcriptase data ([2]; 7 μg/ml, Day 11): 1537
- Reverse transcriptase data ([2]; 7 μg/ml, Day 18): 1683
- Reverse transcriptase data ([2]; 7 μg/ml, Day 25): 1624
- Reverse transcriptase data ([2]; 7 μg/ml, Day 32): 1286
- Reverse transcriptase data ([2]; 7 μg/ml, Day 39): 1368
- Reverse transcriptase data ([2]; 7 μg/ml, Day 46): 1588
- Reverse transcriptase data ([2]; 7 μg/ml, Day 53): 1482
- Reverse transcriptase data ([2]; 7 μg/ml, Day 60): 1381
- Reverse transcriptase data ([2]; 7 μg/ml, Day 67): 1231
- Reverse transcriptase data ([2]; 7 μg/ml, Day 71): 1321
- Reverse transcriptase data ([2]; 7 μg/ml, Day 74): 1528
- Reverse transcriptase data ([2]; 7 μg/ml, Day 88): 1454
- Reverse transcriptase data ([2]; 7 μg/ml, Day 95): 1168
- Reverse transcriptase data ([2]; 7 μg/ml, Day 102): 1463
- Reverse transcriptase data ([2]; 7 μg/ml, Day 109): 1440
- Reverse transcriptase data ([2]; 15 μg/ml, Day 4): 1402
- Reverse transcriptase data ([2]; 15 μg/ml, Day 11): 1402
- Reverse transcriptase data ([2]; 15 μg/ml, Day 18): 1281
- Reverse transcriptase data ([2]; 15 μg/ml, Day 25): 1582
- Reverse transcriptase data ([2]; 15 μg/ml, Day 32): 1140
- Reverse transcriptase data ([2]; 15 μg/ml, Day 39): 1028
- Reverse transcriptase data ([2]; 15 μg/ml, Day 46): 1056
- Reverse transcriptase data ([2]; 15 μg/ml, Day 53): 1160
- Reverse transcriptase data ([2]; 15 μg/ml, Day 60): 1056
- Reverse transcriptase data ([2]; 15 μg/ml, Day 67): 1002
- Reverse transcriptase data ([2]; 15 μg/ml, Day 71): 1108
- Reverse transcriptase data ([2]; 15 μg/ml, Day 74): 1201
- Reverse transcriptase data ([2]; 15 μg/ml, Day 88): 1068
- Reverse transcriptase data ([2]; 15 μg/ml, Day 95): 1004
- Reverse transcriptase data ([2]; 15 μg/ml, Day 102): 1165
- Reverse transcriptase data ([2]; 15 μg/ml, Day 109): 1265
- Reverse transcriptase data ([2]; 30 μg/ml, Day 4): 650
- Reverse transcriptase data ([2]; 30 μg/ml, Day 11): 463
- Reverse transcriptase data ([2]; 30 μg/ml, Day 18): 221
- Reverse transcriptase data ([2]; 30 μg/ml, Day 25): 643
- Reverse transcriptase data ([2]; 30 μg/ml, Day 32): 462
- Reverse transcriptase data ([2]; 30 μg/ml, Day 39): 221
- Reverse transcriptase data ([2]; 30 μg/ml, Day 46): 149
- Reverse transcriptase data ([2]; 30 μg/ml, Day 53): 281
- Reverse transcriptase data ([2]; 30 μg/ml, Day 60): 248
- Reverse transcriptase data ([2]; 30 μg/ml, Day 67): 147
- Reverse transcriptase data ([2]; 30 μg/ml, Day 71): 201
- Reverse transcriptase data ([2]; 30 μg/ml, Day 74): 161
- Reverse transcriptase data ([2]; 30 μg/ml, Day 88): 249
- Reverse transcriptase data ([2]; 30 μg/ml, Day 95): 176
- Reverse transcriptase data ([2]; 30 μg/ml, Day 102): 197
- Reverse transcriptase data ([2]; 30 μg/ml, Day 109): 370
- Reverse transcriptase data, continued test ([2]; run through 222 days): data remained consistent
